Columns and labels:
[1] = biological target: Prostaglandin G/H synthase 2 (Homo sapiens) (UniProt P35354); assay: COX2(h) Eurofins-Cerep enzyme and uptake assay; conditions: Compound concentration 10.0 uM
[2] = biological target: Histamine H1 receptor (Homo sapiens) (UniProt P35367); assay: H1 (h) Eurofins-Cerep binding assay; design: ligand concentration 1 nM; conditions: filed as antagonist, Compound concentration 10.0 uM
[3] = biological target: Estrogen receptor (Homo sapiens) (UniProt P03372); assay: Estrogen ER alpha (h) Eurofins-Cerep binding assay; design: ligand concentration 0.5 nM; conditions: filed as agonist, Compound concentration 10.0 uM
Rattus norvegicus = species: Rattus norvegicus; assay: SKCa channel Eurofins-Cerep binding assay; design: ligand concentration 0.007 nM; conditions: filed as antagonist, Compound concentration 10.0 uM
[4] = tested on: Tyrosine-protein kinase ABL1 (Homo sapiens), P00519 [Q252H]; conditions: Compound concentration 1000.0 nM
[5] = biological target: Activin receptor type-2A (Homo sapiens) (UniProt P27037); conditions: Compound concentration 1000.0 nM
[6] = tested on: ALK tyrosine kinase receptor (Homo sapiens), Q9UM73 [C1156Y]; conditions: Compound concentration 1000.0 nM
[7] = biological target: Calcium/calmodulin-dependent protein kinase type 1 (Homo sapiens) (UniProt Q14012); conditions: Compound concentration 1000.0 nM
[8] = biological target: Cyclin-dependent kinase 19 (Homo sapiens) (UniProt Q9BWU1); conditions: Compound concentration 1000.0 nM
[9] = biological target: Cyclin-dependent kinase 7 (Homo sapiens) (UniProt P50613); conditions: Compound concentration 1000.0 nM
[10] = biological target: Casein kinase I isoform gamma-3 (Homo sapiens) (UniProt Q9Y6M4); conditions: Compound concentration 1000.0 nM
[11] = biological target: Serine/threonine-protein kinase 17B (Homo sapiens) (UniProt O94768); conditions: Compound concentration 1000.0 nM
[12] = tested on: Epidermal growth factor receptor (Homo sapiens), P00533 [G719S]; conditions: Compound concentration 1000.0 nM
[13] = tested on: Epidermal growth factor receptor (Homo sapiens), P00533 [L858R,T790M]; conditions: Compound concentration 1000.0 nM
[14] = biological target: Ephrin type-B receptor 3 (Homo sapiens) (UniProt P54753); conditions: Compound concentration 1000.0 nM
[15] = biological target: Tyrosine-protein kinase Fgr (Homo sapiens) (UniProt P09769); conditions: Compound concentration 1000.0 nM
[16] = biological target: Receptor-type tyrosine-protein kinase FLT3 (Homo sapiens) (UniProt P36888); conditions: Compound concentration 1000.0 nM
[17] = biological target: Insulin-like growth factor 1 receptor (Homo sapiens) (UniProt P08069); conditions: Compound concentration 1000.0 nM
[18] = biological target: Leukocyte tyrosine kinase receptor (Homo sapiens) (UniProt P29376); conditions: Compound concentration 1000.0 nM
[19] = biological target: Serine/threonine-protein kinase MARK2 (Homo sapiens) (UniProt Q7KZI7); conditions: Compound concentration 1000.0 nM
[20] = biological target: Hepatocyte growth factor receptor (Homo sapiens) (UniProt P08581); conditions: Compound concentration 1000.0 nM
[21] = tested on: Hepatocyte growth factor receptor (Homo sapiens), P08581 [M1250T]; conditions: Compound concentration 1000.0 nM
[22] = biological target: Myosin light chain kinase (Homo sapiens) (UniProt Q32MK0); conditions: Compound concentration 1000.0 nM
[23] = biological target: Serine/threonine-protein kinase 4 (Homo sapiens) (UniProt Q13043); conditions: Compound concentration 1000.0 nM
[24] = biological target: Serine/threonine-protein kinase PAK 4 (Homo sapiens) (UniProt O96013); conditions: Compound concentration 1000.0 nM
[25] = biological target: Cyclin-dependent kinase 14 (Homo sapiens) (UniProt O94921); conditions: Compound concentration 1000.0 nM
[26] = tested on: Phosphatidylinositol 4,5-bisphosphate 3-kinase catalytic subunit alpha isoform (Homo sapiens), P42336 [E545A]; conditions: Compound concentration 1000.0 nM
[27] = tested on: Phosphatidylinositol 4,5-bisphosphate 3-kinase catalytic subunit alpha isoform (Homo sapiens), P42336 [H1047Y]; conditions: Compound concentration 1000.0 nM
[28] = tested on: Phosphatidylinositol 4,5-bisphosphate 3-kinase catalytic subunit alpha isoform (Homo sapiens), P42336 [M1043I]; conditions: Compound concentration 1000.0 nM
[29] = biological target: cAMP-dependent protein kinase catalytic subunit beta (Homo sapiens) (UniProt P22694); conditions: Compound concentration 1000.0 nM
[30] = biological target: Serine/threonine-protein kinase N1 (Homo sapiens) (UniProt Q16512); conditions: Compound concentration 1000.0 nM
[31] = biological target: cGMP-dependent protein kinase 2 (Homo sapiens) (UniProt Q13237); conditions: Compound concentration 1000.0 nM
[32] = biological target: Serine/threonine-protein kinase SIK3 (Homo sapiens) (UniProt Q9Y2K2); conditions: Compound concentration 1000.0 nM
[33] = biological target: Dual serine/threonine and tyrosine protein kinase (Homo sapiens) (UniProt Q6XUX3); conditions: Compound concentration 1000.0 nM
[34] = biological target: Rho-associated protein kinase 2 (Homo sapiens) (UniProt O75116); conditions: Compound concentration 1000.0 nM
[35] = biological target: Ribosomal protein S6 kinase alpha-4 (Homo sapiens) (UniProt O75676); conditions: Compound concentration 1000.0 nM
[36] = biological target: Ribosomal protein S6 kinase alpha-3 (Homo sapiens) (UniProt P51812); conditions: Compound concentration 1000.0 nM
[37] = biological target: Ribosomal protein S6 kinase alpha-6 (Homo sapiens) (UniProt Q9UK32); conditions: Compound concentration 1000.0 nM
[38] = biological target: Serine/threonine-protein kinase 33 (Homo sapiens) (UniProt Q9BYT3); conditions: Compound concentration 1000.0 nM
[39] = biological target: Mitogen-activated protein kinase kinase kinase 7 (Homo sapiens) (UniProt O43318); conditions: Compound concentration 1000.0 nM
[40] = biological target: Serine/threonine-protein kinase TAO2 (Homo sapiens) (UniProt Q9UL54); conditions: Compound concentration 1000.0 nM
[41] = biological target: Dual specificity protein kinase TTK (Homo sapiens) (UniProt P33981); conditions: Compound concentration 1000.0 nM
[42] = biological target: Serine/threonine-protein kinase ULK3 (Homo sapiens) (UniProt Q6PHR2); conditions: Compound concentration 1000.0 nM
[43] = biological target: Phosphatidylinositol 3-kinase catalytic subunit type 3 (Homo sapiens) (UniProt Q8NEB9); conditions: Compound concentration 1000.0 nM
[44] = biological target: Endothelin-1 receptor (Homo sapiens) (UniProt P25101); conditions: filed as agonist, Compound concentration 10.0 uM

Sequence of Phosphatidylinositol 4,5-bisphosphate 3-kinase catalytic subunit alpha isoform (Homo sapiens), P42336 [H1047Y] (P42336 whole entry H1047Y, canonical isoform): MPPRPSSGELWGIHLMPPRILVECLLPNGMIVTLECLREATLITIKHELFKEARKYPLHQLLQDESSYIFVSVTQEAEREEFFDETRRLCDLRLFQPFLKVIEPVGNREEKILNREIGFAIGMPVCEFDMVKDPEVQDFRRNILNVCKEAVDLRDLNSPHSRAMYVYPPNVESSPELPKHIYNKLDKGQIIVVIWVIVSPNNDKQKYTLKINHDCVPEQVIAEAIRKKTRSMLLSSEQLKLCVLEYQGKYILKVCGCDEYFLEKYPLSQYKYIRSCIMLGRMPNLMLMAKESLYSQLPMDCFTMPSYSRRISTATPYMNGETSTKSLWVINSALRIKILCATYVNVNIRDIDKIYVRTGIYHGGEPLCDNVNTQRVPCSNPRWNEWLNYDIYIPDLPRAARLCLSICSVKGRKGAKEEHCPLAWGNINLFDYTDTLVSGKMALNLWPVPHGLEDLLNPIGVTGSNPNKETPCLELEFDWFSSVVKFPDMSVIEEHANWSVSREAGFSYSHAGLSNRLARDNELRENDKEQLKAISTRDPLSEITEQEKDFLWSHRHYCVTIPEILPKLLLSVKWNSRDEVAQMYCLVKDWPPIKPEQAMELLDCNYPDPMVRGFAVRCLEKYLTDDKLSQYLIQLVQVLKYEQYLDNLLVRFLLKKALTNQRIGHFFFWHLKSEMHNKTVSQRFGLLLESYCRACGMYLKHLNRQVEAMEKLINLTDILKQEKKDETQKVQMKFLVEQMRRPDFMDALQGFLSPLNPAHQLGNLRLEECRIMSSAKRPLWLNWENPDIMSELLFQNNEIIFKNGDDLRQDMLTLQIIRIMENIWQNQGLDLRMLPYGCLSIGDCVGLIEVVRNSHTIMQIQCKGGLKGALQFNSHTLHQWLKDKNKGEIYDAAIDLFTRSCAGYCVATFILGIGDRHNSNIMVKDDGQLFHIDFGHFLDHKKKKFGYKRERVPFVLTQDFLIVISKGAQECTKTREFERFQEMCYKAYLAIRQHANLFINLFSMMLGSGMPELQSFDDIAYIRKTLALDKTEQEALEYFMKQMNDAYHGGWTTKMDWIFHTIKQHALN
Sequence of Phosphatidylinositol 3-kinase catalytic subunit type 3 (Homo sapiens) (Q8NEB9 whole entry): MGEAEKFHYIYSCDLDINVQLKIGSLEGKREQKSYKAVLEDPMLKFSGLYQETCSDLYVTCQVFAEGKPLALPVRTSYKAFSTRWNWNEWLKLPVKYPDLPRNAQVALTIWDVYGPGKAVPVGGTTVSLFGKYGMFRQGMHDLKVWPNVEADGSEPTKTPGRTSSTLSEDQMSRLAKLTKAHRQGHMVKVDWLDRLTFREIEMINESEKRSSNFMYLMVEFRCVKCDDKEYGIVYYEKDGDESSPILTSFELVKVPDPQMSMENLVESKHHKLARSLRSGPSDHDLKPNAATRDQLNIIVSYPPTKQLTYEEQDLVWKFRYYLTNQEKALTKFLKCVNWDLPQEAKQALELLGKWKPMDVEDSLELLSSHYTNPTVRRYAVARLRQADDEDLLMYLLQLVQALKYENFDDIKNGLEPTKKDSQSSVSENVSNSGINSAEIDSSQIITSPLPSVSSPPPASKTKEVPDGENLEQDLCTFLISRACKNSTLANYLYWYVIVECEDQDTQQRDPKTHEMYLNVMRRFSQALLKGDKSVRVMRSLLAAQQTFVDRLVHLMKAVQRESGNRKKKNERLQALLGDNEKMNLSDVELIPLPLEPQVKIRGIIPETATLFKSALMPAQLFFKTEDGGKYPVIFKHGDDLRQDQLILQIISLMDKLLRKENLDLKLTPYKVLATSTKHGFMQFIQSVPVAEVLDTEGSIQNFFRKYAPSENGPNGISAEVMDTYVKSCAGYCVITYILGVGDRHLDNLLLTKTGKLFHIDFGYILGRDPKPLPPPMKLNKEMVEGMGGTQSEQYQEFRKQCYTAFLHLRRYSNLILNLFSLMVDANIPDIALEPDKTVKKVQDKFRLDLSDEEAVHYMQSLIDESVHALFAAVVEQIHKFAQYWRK
Sequence of Histamine H1 receptor (Homo sapiens) (P35367 whole entry): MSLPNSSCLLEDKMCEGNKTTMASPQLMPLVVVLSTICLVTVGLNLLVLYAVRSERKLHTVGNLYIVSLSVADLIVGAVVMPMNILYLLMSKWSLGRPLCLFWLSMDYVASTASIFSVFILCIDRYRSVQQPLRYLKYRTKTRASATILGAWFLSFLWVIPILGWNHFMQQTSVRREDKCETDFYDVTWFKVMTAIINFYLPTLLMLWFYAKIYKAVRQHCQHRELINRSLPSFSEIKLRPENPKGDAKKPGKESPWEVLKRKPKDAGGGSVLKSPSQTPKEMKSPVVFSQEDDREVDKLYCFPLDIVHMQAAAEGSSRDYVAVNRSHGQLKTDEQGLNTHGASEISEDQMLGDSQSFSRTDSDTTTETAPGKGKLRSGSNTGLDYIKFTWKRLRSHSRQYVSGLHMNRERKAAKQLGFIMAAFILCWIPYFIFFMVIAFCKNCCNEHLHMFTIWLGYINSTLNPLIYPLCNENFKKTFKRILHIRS
Sequence of ALK tyrosine kinase receptor (Homo sapiens), Q9UM73 [C1156Y] (Q9UM73 whole entry C1156Y, looked up): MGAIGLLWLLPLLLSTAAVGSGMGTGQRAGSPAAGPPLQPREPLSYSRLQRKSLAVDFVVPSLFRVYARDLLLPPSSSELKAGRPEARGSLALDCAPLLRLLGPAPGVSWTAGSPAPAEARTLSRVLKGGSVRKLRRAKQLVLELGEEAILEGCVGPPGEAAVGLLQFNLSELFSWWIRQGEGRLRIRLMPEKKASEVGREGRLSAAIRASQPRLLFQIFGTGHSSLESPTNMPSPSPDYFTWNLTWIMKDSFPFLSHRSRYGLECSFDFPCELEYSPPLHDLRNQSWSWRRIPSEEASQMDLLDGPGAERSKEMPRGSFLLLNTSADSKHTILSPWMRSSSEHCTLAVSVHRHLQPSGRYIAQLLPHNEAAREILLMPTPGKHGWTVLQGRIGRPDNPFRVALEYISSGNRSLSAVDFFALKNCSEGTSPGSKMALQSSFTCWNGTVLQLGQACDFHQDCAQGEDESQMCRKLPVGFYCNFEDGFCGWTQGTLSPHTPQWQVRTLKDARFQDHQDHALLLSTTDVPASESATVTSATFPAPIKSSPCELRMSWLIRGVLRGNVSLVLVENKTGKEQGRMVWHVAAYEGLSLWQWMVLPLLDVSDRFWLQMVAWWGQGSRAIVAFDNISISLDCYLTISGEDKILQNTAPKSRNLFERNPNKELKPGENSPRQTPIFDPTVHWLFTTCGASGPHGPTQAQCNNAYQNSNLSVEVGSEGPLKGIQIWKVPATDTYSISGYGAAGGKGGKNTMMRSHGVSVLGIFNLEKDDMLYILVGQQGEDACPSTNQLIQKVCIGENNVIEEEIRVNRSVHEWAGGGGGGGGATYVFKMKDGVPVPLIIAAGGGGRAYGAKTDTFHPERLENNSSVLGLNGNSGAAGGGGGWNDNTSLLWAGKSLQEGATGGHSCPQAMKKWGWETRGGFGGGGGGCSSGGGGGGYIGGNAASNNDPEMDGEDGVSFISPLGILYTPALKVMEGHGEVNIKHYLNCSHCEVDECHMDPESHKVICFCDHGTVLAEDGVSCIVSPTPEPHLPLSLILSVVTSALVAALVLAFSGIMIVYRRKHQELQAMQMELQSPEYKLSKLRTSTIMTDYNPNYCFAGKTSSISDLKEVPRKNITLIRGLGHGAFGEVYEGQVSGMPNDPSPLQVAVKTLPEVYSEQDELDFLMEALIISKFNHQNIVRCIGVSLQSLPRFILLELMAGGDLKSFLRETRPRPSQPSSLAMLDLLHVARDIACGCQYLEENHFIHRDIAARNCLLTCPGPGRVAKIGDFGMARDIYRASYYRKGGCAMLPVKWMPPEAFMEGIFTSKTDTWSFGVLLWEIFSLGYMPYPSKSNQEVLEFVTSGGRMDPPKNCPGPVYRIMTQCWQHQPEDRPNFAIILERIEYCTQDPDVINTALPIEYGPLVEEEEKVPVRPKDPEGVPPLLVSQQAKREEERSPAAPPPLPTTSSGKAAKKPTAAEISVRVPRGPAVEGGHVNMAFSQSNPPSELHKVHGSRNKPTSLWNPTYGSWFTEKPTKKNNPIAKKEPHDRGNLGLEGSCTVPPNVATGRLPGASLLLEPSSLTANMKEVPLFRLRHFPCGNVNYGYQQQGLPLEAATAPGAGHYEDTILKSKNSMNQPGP
Sequence of Cyclin-dependent kinase 19 (Homo sapiens) (Q9BWU1 whole entry): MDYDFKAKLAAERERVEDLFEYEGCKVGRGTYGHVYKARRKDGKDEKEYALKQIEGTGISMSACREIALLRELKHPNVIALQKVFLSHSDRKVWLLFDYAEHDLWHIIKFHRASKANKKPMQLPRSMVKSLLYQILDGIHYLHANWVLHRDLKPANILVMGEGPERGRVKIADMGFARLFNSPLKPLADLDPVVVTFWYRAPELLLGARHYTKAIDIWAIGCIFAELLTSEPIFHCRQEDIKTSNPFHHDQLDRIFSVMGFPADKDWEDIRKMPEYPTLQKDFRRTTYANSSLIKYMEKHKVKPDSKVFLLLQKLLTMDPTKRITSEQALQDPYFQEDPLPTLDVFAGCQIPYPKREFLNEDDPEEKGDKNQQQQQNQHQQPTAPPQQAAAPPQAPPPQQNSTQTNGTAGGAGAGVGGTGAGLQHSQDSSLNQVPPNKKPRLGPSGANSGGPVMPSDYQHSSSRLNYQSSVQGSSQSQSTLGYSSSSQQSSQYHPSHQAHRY
Sequence of Tyrosine-protein kinase Fgr (Homo sapiens) (P09769 2-529 limits assumed): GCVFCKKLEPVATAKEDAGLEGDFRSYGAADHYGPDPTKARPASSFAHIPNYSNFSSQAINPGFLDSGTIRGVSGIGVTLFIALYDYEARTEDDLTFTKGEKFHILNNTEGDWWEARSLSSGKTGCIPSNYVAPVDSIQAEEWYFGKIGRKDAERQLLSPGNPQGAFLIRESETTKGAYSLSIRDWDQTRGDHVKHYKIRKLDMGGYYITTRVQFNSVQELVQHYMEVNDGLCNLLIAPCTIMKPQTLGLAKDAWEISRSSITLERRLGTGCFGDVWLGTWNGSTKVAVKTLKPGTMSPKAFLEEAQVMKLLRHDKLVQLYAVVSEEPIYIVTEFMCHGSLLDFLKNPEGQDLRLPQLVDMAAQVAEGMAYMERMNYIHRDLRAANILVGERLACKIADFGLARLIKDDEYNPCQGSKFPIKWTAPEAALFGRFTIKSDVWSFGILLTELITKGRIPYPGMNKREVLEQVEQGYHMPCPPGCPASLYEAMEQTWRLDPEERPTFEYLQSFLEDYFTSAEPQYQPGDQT

CCCOc1ccc([C@H]2[C@H](C(=O)O)[C@@H](c3ccc4c(c3)OCO4)CN2CC(=O)Nc2c(CC)cccc2CC)cc1 [A-192621]
% Inhibition of Control Values (Mean n=2) [1]: 44%
% Inhibition of Control Specific Binding (Mean n=2) [2]: -4.4%
% Inhibition of Control Specific Binding (Mean n=2) [3]: -1.1%
% Inhibition of Control Specific Binding (Mean n=2) (Rattus norvegicus): 0.5%
residual activity [4]: 61%
residual activity [5]: 100%
residual activity [6]: 98%
residual activity [7]: 93%
residual activity [8]: 95%
residual activity [9]: 78%
residual activity [10]: 100%
residual activity [11]: 91%
residual activity [12]: 89%
residual activity [13]: 75%
residual activity [14]: 97%
residual activity [15]: 98%
residual activity [16]: 80%
residual activity [17]: 89%
residual activity [18]: 100%
residual activity [19]: 88%
residual activity [20]: 100%
residual activity [21]: 71%
residual activity [22]: 86%
residual activity [23]: 99%
residual activity [24]: 91%
residual activity [25]: 100%
residual activity [26]: 92%
residual activity [27]: 78%
residual activity [28]: 91%
residual activity [29]: 87%
residual activity [30]: 87%
residual activity [31]: 82%
residual activity [32]: 71%
residual activity [33]: 73%
residual activity [34]: 69%
residual activity [35]: 84%
residual activity [36]: 72%
residual activity [37]: 77%
residual activity [38]: 65%
residual activity [39]: 100%
residual activity [40]: 74%
residual activity [41]: 94%
residual activity [42]: 72%
residual activity [43]: 78%
% Inhibition of Control Specific Binding (Mean n=2) [44]: 97.1%

CCCOc1ccc([C@@H]2[C@@H](C(=O)O)[C@H](c3ccc4c(c3)OCO4)CN2CC(=O)Nc2c(CC)cccc2CC)cc1 [A-1806262]
% Inhibition of Control Values (Mean n=2) [1]: 34%
% Inhibition of Control Specific Binding (Mean n=2) [2]: -10%
% Inhibition of Control Specific Binding (Mean n=2) [3]: -0.8%
% Inhibition of Control Specific Binding (Mean n=2) (Rattus norvegicus): -2%
residual activity [4]: 92%
residual activity [5]: 100%
residual activity [6]: 79%
residual activity [7]: 100%
residual activity [8]: 89%
residual activity [9]: 86%
residual activity [10]: 100%
residual activity [11]: 93%
residual activity [12]: 100%
residual activity [13]: 87%
residual activity [14]: 96%
residual activity [15]: 93%
residual activity [16]: 71%
residual activity [17]: 88%
residual activity [18]: 100%
residual activity [19]: 92%
residual activity [20]: 92%
residual activity [21]: 81%
residual activity [22]: 87%
residual activity [23]: 95%
residual activity [24]: 91%
residual activity [25]: 92%
residual activity [26]: 92%
residual activity [27]: 100%
residual activity [28]: 91%
residual activity [29]: 100%
residual activity [30]: 100%
residual activity [31]: 83%
residual activity [32]: 89%
residual activity [33]: 82%
residual activity [34]: 84%
residual activity [35]: 97%
residual activity [36]: 95%
residual activity [37]: 76%
residual activity [38]: 69%
residual activity [39]: 97%
residual activity [40]: 91%
residual activity [41]: 100%
residual activity [42]: 83%
residual activity [43]: 88%
% Inhibition of Control Specific Binding (Mean n=2) [44]: 63.7%
